Test system: papillary muscle of the guinea pig
Assay: Action potential duration on the papillary muscle of the guinea pig (hypoxia-shortened APD90)
Conditions: 2 μM; 60 min after addition; relative to shortening caused by hypoxia
Excerpt: Action Potential Duration on the Papillary Muscle of the Guinea Pig
ATP deficiency states observed during ischemia in the cardiac muscle cell, lead to a shortening of the action potential duration (ATP=adenosine triphosphate). They are regarded as one of the causes of so-called reentry arrhythmias, which can cause sudden cardiac death. The opening of ATP-sensitive potassium channels by the lowering of the ATP level is regarded as the cause of this. For the measurement of the action potential on the papillary muscle of the guinea pig a standard microelectrode technique was employed.
Guinea pigs of both sexes were killed by a blow to the head, the hearts were removed, and the papillary muscles were separated out and suspended in an organ bath. The organ bath was rinsed with Ringer's solution (136 mmol/l of NaCl, 3.3 mmol/l of KCl, 2.5 mmol/l of CaCl2, 1.2 mmol/l of KH2PO4, 1.1 mmol/l of MgSO4, 5.0 mmol/l of glucose, 10.0 mmol/l of 1-(2-hydroxyethyl)piperazine4-(2-ethanesulfonic acid) (HEPES), pH adjusted to 7.4 with NaOH) and aerated with 100% oxygen at a temperature of 37° C. The muscle was stimulated with square-wave pulses of 1 V and 1 ms duration and a frequency of 1 Hz by means of an electrode. The action potential was derived and recorded by means of a glass microelectrode inserted intracellularly, which was filled with 3 mol/l of KCl solution. The compound to be tested was added to the Ringer's solution in a concentration of 2 μmol/l. The action potential was amplified using an amplifier from Hugo Sachs (March-Hugstetten, Germany) and stored and analyzed by means of a computer. The duration of the action potential was determined at a degree of repolarization of 90% (APD90). After an equilibration time of 30 min, the action potential shortening was produced by rinsing the papillary muscle with a hypoxic NaCl solution. The glucose was removed here, the HEPES buffer replaced by PIPES buffer (piperazine-1,4-bis(2-ethanesulfonic acid)), the pH was adjusted to 6.5 and the aeration was carried out using 100% nitrogen. After a time of 60 min, this led to a marked shortening of the APD90. After this time, the test compound was added and the relengthening of the action potential recorded after a further 60 min. The compound-caused relengthening of the APD90 was calculated as a percentage, in relation to the shortening caused by hypoxia. The test compounds were added to the bath solution as stock solution in propanediol.
The following relengthenings of the APD90 values were observed.
In the case of `CNC(=S)NS(=O)(=O)c1cc(CCNC(=O)c2cnc3ccccc3c2)ccc1OCCOC` [Example 2, 1-[5-(2-(3-Quinolinecarboxamido)ethyl)-2-(2-methoxyethoxy)phonylsulfonyl]-3-methyl-thiourea], the “Relengthening of the APD90 shortened by hypoxia” value (“Relengthening” for short) is reported as 42%.
With `CNC(=S)NS(=O)(=O)c1cc(CCNC(=O)c2cnc3ccccc3c2)ccc1OCCOCC(F)(F)F` [Example 4, 1-[5-(2-(3-Quinolinecarboxamido)ethyl)-2-(2-(2,2,2-trifluoroethoxy)ethoxy)phenyl-sulfonyl]-3-methyl-thiourea] the “Relengthening” value was 69%.
With `CCCOc1ccc(CCNC(=O)c2cnc3ccccc3c2)cc1S(=O)(=O)NC(=S)NC` [Example 8, 1-[5-(2-(3-Quinolinecarboxamido)ethyl)-2-propyloxyphenylsulfonyl]-3-methyl-thiourea] the “Relengthening” value was 35%.
For `CNC(=S)NS(=O)(=O)c1cc(CCNC(=O)C=C(C)C)ccc1OCCOC` [Example 17, 1-[5-(2-(3-Methylbut-2-eneamido)ethyl)-2-(2-methoxyethoxy)phenylsulfonyl]-3-methyl-thiourea], the “Relengthening” value was 34%.

Test system: chloroform-induced ventricular fibrillation in the mouse
Assay: Chloroform-induced ventricular fibrillation in the mouse
Format: in vivo
Conditions: 3 mg/kg i.p., 30 min before chloroform anesthesia; untreated control 100%
Excerpt: Chloroform-induced Ventricular Fibrillation in the Mouse (Action in the Case of Vagal Dysfunction)
Hypoactivity of the vagal nervous system leads to hyperactivity of the sympathetic nervous system. Damages to health that result from an inequilibrium of the autonomic nervous system when the dysfunction affects the heart include the weakening of the myocardial contractile force and fatal cardiac arrhythmias such as ventricular fibrillation. The action of the test compounds was investigated in the model of chloroform-induced ventricular fibrillation in the mouse (see J. W. Lawson, Antiarrhythmic activity of some isoquinoline derivatives determined by a rapid screening procedure in the mouse; J. Pharmacol. Exp. Ther. 160 (1968) 22).
The test compound was dissolved in a mixture of dimethyl sulfoxide (DMSO) and 10 percent sodium hydrogencarbonate solution and administered intraperitoneally (i.p.). The dose was 3 mg/kg. 30 min later, the mouse was anesthetized with chloroform in a beaker. As soon as respiratory arrest had occurred under deep anesthesia (toxic stage of anesthesia), the thorax of the animal was opened using a pair of scissors and the heartbeat was visually inspected. It can be determined here at a glance whether the heart is beating, fibrillating, or has stopped. […]
In the case of `COc1ccc(CCNC(=O)C2=CCCCC2)cc1S(=O)(=O)NC(=S)NC(C)C` [Example 20, 1-[5-(2-(1-Cyclohex-1-enecarboxamido)ethyl)-2-methoxyphenylsulfonyl]-3-isopropyl-thiourea], the “Fibrillation ratio (in %)” value is reported as 70%.
For `COc1ccc(CCNC(=O)C2=CCCCC2)cc1S(=O)(=O)NC(=S)NC1CCCCC1` [Example 21, 1-[5-(2-(1-Cyclohex-1-enecarboxamido)ethyl)-2-methoxyphenylsulfonyl]-3-cyclohexyl-thiourea], the “Fibrillation ratio (in %)” value was 70%.

Biological target: hSUR1/hKir6.2 (Homo sapiens, UniProt Q09428+Q14654)
Sequence (Q09428 whole entry): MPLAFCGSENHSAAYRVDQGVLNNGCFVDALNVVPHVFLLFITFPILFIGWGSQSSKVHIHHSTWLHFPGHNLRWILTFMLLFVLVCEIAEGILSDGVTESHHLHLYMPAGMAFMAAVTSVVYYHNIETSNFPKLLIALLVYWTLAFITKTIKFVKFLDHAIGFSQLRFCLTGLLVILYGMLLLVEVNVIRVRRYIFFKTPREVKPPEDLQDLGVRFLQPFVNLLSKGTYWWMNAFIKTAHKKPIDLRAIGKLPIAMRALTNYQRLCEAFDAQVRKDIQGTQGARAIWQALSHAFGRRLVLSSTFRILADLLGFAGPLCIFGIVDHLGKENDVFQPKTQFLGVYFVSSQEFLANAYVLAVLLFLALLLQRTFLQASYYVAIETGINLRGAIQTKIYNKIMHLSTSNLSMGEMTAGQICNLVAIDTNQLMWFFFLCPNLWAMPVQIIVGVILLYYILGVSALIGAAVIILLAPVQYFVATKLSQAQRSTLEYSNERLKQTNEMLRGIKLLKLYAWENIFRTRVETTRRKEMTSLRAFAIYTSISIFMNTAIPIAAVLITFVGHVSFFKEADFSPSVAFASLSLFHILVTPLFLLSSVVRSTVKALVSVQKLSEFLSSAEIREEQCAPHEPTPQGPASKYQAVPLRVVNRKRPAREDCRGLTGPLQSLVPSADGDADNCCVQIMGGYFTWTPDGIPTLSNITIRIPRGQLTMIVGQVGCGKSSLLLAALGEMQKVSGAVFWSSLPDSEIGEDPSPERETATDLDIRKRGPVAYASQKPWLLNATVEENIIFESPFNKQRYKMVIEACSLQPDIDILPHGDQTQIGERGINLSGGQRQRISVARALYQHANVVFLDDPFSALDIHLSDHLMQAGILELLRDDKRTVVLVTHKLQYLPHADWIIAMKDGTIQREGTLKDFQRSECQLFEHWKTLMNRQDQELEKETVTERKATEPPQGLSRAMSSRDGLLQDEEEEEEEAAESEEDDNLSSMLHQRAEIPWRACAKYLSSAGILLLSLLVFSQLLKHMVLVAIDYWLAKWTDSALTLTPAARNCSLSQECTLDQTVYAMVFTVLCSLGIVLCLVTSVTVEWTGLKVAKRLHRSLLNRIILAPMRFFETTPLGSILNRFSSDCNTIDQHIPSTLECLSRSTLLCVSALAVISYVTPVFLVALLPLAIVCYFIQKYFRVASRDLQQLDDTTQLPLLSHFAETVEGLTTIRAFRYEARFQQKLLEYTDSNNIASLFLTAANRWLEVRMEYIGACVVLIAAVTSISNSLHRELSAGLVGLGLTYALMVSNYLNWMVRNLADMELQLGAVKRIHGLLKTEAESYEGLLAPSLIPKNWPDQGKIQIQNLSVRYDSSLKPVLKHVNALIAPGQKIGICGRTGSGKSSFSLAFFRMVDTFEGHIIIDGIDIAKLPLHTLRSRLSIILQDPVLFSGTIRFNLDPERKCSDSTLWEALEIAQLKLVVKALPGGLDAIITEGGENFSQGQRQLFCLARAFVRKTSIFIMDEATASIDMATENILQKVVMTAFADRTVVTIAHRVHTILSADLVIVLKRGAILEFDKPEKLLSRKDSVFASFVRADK
Sequence (Q14654 whole entry): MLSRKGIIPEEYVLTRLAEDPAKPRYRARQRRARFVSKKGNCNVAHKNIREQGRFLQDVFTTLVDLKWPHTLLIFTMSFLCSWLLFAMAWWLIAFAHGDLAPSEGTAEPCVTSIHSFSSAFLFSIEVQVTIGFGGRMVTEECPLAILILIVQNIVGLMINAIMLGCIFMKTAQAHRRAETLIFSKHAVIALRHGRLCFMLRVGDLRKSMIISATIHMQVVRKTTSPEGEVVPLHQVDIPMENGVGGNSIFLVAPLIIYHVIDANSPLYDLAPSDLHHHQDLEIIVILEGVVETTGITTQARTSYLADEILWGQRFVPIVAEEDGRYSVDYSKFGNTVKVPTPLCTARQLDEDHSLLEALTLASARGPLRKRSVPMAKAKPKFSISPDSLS
Assay: Action on hSUR1/hKir6.2-transfected CHO cells (membrane potential, DIBAC4 fluorescence, FLIPR)
Format: cell-based
Conditions: 10 μM; CHO cells activated with diaxozide
Excerpt: Action on hSUR1/hKir6.2-transfected CHO Cells (Hypoglycemic Action)
The target organ of these compounds is the […] of the pancreas where they block ATP-sensitive potassium channels and produce a release of the hypoglycemic hormone insulin by influencing the electrical potential of the cell membrane.
The extent of this depolarization of the cell membrane, which is caused by the compounds according to the invention, was investigated on CHO cells that were transfected with the cloned components of human pancreatic ATP-sensitive potassium channels, hSUR1, and hKir6.2, and activated by pretreatment with diaxozide, an opener of ATP-sensitive potassium channels. The potency of a compound with respect to the membrane potential of these transfected and activated CHO cells is a measure of the hypoglycemic potential of this compound.
On the day of measurement, the microtiter plates were washed three times with PBS (physiological buffer solution). In the last washing step, 90 μl remained in each well. The cells were then loaded with the fluorescent dye DIBAC4 (Molecular Probes, Portland, Oreg., USA) by addition of 90 μl of a 10-micromolar solution of DIBAC4 in PBS and of 90 μl of a 400 micromolar solution of diaxozide in PBS to each well. After an incubation time of 30 min at 37° C., the microtiter plates were then transferred to a fluorescent microtiter plate reader (FLIPR; Molecular Devices, Sunnyvale, Calif., USA). The cells were stimulated by means of an argon laser (Innova 90; Coherent, Santa Clara, Calif., USA) at a wavelength of 488 nm and the fluorescence emission was measured by means of a CCD camera. The measurement of the membrane potential began after 4 min by addition of 20 μl of a solution of the test compound or of the control solution to each well, the resulting fluorescence emission being measured every 20 seconds for a period of 20 min. The data shown are mean values of at least 4 experiments.
In the case of `CNC(=S)NS(=O)(=O)c1cc(CCNC(=O)c2cnc3ccccc3c2)ccc1OCCOC` [Example 2, 1-[5-(2-(3-Quinolinecarboxamido)ethyl)-2-(2-methoxyethoxy)phonylsulfonyl]-3-methyl-thiourea], the “Blockade hSUR1/hKir6.2” value is reported as 6.1%.
For `CNC(=O)NS(=O)(=O)c1cc(CCNC(=O)c2cnc3ccccc3c2)ccc1OCCOC` [Example 3, 1-[5-(2-(3-Quinolinecarboxamido)ethyl)-2-(2-methoxyethoxy)phenylsulfonyl]-3-methyl-urea], the “Blockade hSUR1/hKir6.2” value was 0%.
In the case of `CNC(=S)NS(=O)(=O)c1cc(CCNC(=O)c2cnc3ccccc3c2)ccc1OCCOCC(F)(F)F` [Example 4, 1-[5-(2-(3-Quinolinecarboxamido)ethyl)-2-(2-(2,2,2-trifluoroethoxy)ethoxy)phenyl-sulfonyl]-3-methyl-thiourea], the “Blockade hSUR1/hKir6.2” value is reported as 69.8%.
In the case of `CNC(=S)NS(=O)(=O)c1cc(CCNC(=O)c2cnc3ccccc3c2)ccc1OCCOc1ccccc1` [Example 11, 1-[5-(2-(3-Quinolinecarboxamido)ethyl)-2-(2-phenoxyethoxy)phenylsulfonyl]-3-methyl-thiourea], the “Blockade hSUR1/hKir6.2” value is reported as 67.5%.
With `COc1ccc(CCNC(=O)C2=CCCCC2)cc1S(=O)(=O)NC(=S)NC(C)C` [Example 20, 1-[5-(2-(1-Cyclohex-1-enecarboxamido)ethyl)-2-methoxyphenylsulfonyl]-3-isopropyl-thiourea] the “Blockade hSUR1/hKir6.2” value was 38.3%.

Test system: not given
Assay: not given
Conditions: not given
For `CNC(=S)NS(=O)(=O)c1cc(CCNC(=O)c2cnc3ccccc3c2)ccc1OC` [Example 1, 1-[5-(2-(3-Quinolinecarboxamido)ethyl)-2-methoxyphenylsulfonyl]-3-methyl-thiourea], the melting point was 85 °C.
In the case of `CNC(=O)NS(=O)(=O)c1cc(CCNC(=O)c2cnc3ccccc3c2)ccc1OCCOCC(F)(F)F` [Example 6, 1-[5(2-(3Quinolinecarboxamido)ethyl)-2-(2(2,2,2-trifluoroethoxy)ethoxy)phenyl-sulfonyl]-3-methyl-urea], the melting point is reported as 128 °C.
For `CCOc1ccc(CCNC(=O)c2cnc3ccccc3c2)cc1S(=O)(=O)NC(=S)NC` [Example 7, 1-[5-(2-(3-Quinolinecarboxamido)ethyl)-2-ethoxyphenylsulfonyl]-3-methyl-thiourea], the melting point was 189 to 193 °C.
Molecule `CCCOc1ccc(CCNC(=O)c2cnc3ccccc3c2)cc1S(=O)(=O)NC(=O)NC` [Example 9] has a melting point of 120 °C.
For `CCOCCOc1ccc(CCNC(=O)c2cnc3ccccc3c2)cc1S(=O)(=O)NC(=S)NC` [Example 10, 1-[5-(2-(3-Quinolinecarboxamido)ethyl)-2-(2-ethoxyethoxy)phenylsulfonyl]-3-methyl-thiourea], the melting point was 50 to 52 °C.
`CNC(=S)NS(=O)(=O)c1cc(CCNC(=O)c2cnc3ccccc3c2)ccc1OCCOc1ccccc1` [Example 11, 1-[5-(2-(3-Quinolinecarboxamido)ethyl)-2-(2-phenoxyethoxy)phenylsulfonyl]-3-methyl-thiourea] gave a melting point of 110 °C.
With `CNC(=S)NS(=O)(=O)c1cc(CCNC(=O)c2cnc3ccccc3c2)ccc1OCCc1ccccc1` [Example 12, 1-[5-(2-(3-Quinolinecarboxamido)ethyl)-2-(2-phenylethoxy)phenylsulfonyl]-3-methyl-thiourea] the melting point was 124 °C.
`CNC(=S)NS(=O)(=O)c1cc(CCNC(=O)c2cnc3ccccc3c2)ccc1OCC(F)(F)F` [Example 13, 1-[5-(2-(3-Quinolinecarboxamido)ethyl)-2-(2,2,2-trifluoroethoxy)phenylsulfonyl]-3-methyl-thiourea] showed a melting point of 75 °C.
Molecule `CNC(=S)NS(=O)(=O)c1cc(CCNC(=O)c2cnc3ccccc3c2)ccc1-c1ccco1` [Example 14, 1-[5-(2-(3-Quinolinecarboxamido)ethyl)-2-(2-furyl)phenylsulfonyl]-3-methyl-thiourea] has a melting point of 155 to 156 °C.
For `CNC(=S)NS(=O)(=O)c1cc(CCNC(=O)C=C(C)C)ccc1OC` [Example 15, 1-[5-(2-(3-Methylbut-2-eneamido)ethyl)-2-methoxyphenylsulfonyl]-3-methyl-thiourea], the melting point was 153 to 154 °C.
Molecule `CNC(=O)NS(=O)(=O)c1cc(CCNC(=O)C=C(C)C)ccc1OC` [Example 16, 1-[5-(2-(3-Methylbut-2-eneamido)ethyl)-2-methoxyphenylsulfonyl]-3-methyl-urea] has a melting point of 199 to 203 °C.
`CNC(=S)NS(=O)(=O)c1cc(CCNC(=O)C2=CCCCC2)ccc1OC` [Example 18, 1-[5-(2-(1-Cyclohex-1-enecarboxamido)ethyl)-2-methoxyphenylsulfonyl]-3-methyl-thiourea] gave a melting point of 179 to 182 °C.
For `CNC(=O)NS(=O)(=O)c1cc(CCNC(=O)C2=CCCCC2)ccc1OC` [Example 19, 1-[5-(2-(1-Cyclohex-1-enecarboxamido)ethyl)-2-methoxyphenylsulfonyl]-3-methyl-urea], the melting point was 175 °C.
In the case of `CNC(=S)NS(=O)(=O)c1cc(CCNC(=O)C2=CCCCC2)ccc1OCCOC` [Example 22, 1-[5-(2-(1-Cyclohex-1-enecarboxamido)ethyl)-2-(2-methoxyethoxy)phenylsulfonyl]-3-methyl-thiourea], the melting point is reported as 150 to 155 °C.

From patent publication US6511989B2, “Acylaminoalkyl-substituted benzenesulfonamide derivatives, their preparation, their use and pharmaceutical preparations comprising them” (Aventis Pharma Deutschland GmbH, priority 2000, dated 2003)
